Test results from US11484601B2, “Targeting M2-like tumor-associated macrophages by using melittin-based proapoptotic peptide” (TWI[…]., priority 2018, dated 2022).

What was measured:
[1] = tested on: 4T1-luciferase breast cancer cells; test: 4T1-luciferase tail vein metastaticity model in BALB/c mice; format: in vivo, mouse; details: 175 nmol/kg once every 3 days, 15 days after tail vein injection
Protocol: Additionally, 4T1-luciferase breast cancer cells (1×10^5) were injected into BALB/c mice through a tail vein in order to identify metastaticity of tumor cells. 3 days after the injection, 175 nmol/kg of each of PBS, dKLA, MEL and MEL-dKLA was injected into each group once every 3 days. 15 days after the cancer cell injection, D-luciferin as a substrate of luciferase enzyme was diluted to a concentration of 40 mg/ml, and then 100 μl thereof was administered to mice in an intraperitoneal administration mode, Then, reaction occurred for about 15 minutes. NightOwl (Berthold Technologies) was used in combination with photographs of mice to analyze the level of settlement and metastasis of cancer cells to the whole body and lungs.

[2] = tested on: 4T1 breast cancer cells; test: 4T1 breast cancer model in BALB/c mice, lung nodules and H&E; format: in vivo, mouse; details: 175 nmol/kg at 3-day intervals; for nodules on the lung surface: 15 days after cancer cell injection
Protocol: More specifically, 4T1 breast cancer cells (1×10^5) were injected into BALB/c mice. Then, 3 days later, 175 nmol/kg of each of PBS, dKLA, MEL and MEL-dKLA was injected into each group at 3-day intervals. To investigate the level of metastasis and nodules on the lung surface, on 15 days after cancer cell injection, mice were sacrificed and the nodules on the lung surface were identified.
More specifically, for H&E staining, we immersed the tissue in a hematoxylin solution, stained the cell nucleus with a purple color. Then, we removed a remaining-stained portion except for the nucleus with an acidic alcohol solution, and immersed the tissue again in an eosin-added solution to stain the cytoplasm with a pink color. Then, the structure of the cell was observed.

[3] = tested on: mitochondria of M2-type macrophage; test: Confocal localisation of TMR-conjugated peptides in mitochondria; format: cell-based, mouse; details: 1 μM TMR-conjugated peptide, 2 hours; for presence in mitochondria by image measurement: MitoTracker green
Protocol: In order to identify the invasion and location of MEL-dKLA into the mitochondria of M2-type macrophage, those were identified using fluorescence microscopy via staining. Further, PASCAL 5 LSM image measurement was performed for quantitative analysis.
More specifically, RAW264.7 macrophage was differentiated into M2 which in turn was incubated together with 1 μM TMR-conjugated dKLA, MEL or MEL-dKLA for 2 hours. The peptides that were not conjugated thereto were washed off, and then the cells were stained with 250 nM MitoTracker green (Invitrogen) for 30 minutes. After the staining, the cells were stained for 10 minutes in PBS to which 4 μg/mL 4′6-diamidino-2-phenylidole (DAPI; Sigma-Aldrich, MO, USA) was added. The stained cells were measured with a laser scanning confocal microscope (Carl Zeiss, Germany). The location of MEL-dKLA in the mitochondria was measured with an LSMS image meter (Carl Zeiss).

[4] = tested on: M2 macrophage; test: Annexin V-FITC / MitoTracker flow cytometry, M2 macrophage; format: cell-based, mouse; details: 0.8 μM peptide, 6 hours
Protocol: More specifically, the cells were stained with Annexin V-fluorescein isothiocyanate (FITC; BD Biosciences, CA, USA) and MitoTracker RedBOX (Invitrogen). The cells were inoculated at 5×10^5 cells/well, onto a 24-well plate. The next day, 0.8 μM peptide was applied thereto. In 1, 3 and 6 hours after the application, the cells were reacted with 250 nM MitoTracker for 1 hour in a serum-free culture solution. Thereafter, the cells were collected and reacted with Annexin V again. The reacted cells were measured with BD FACSCalibur, and were analyzed via FlowJo software (Treestar, Inc., CA, USA). MitoTracker could pass through protoplasmic membrane depending on the membrane charge and then accumulated within the mitochondria. In other words, staining may be identified in the mitochondria membrane of living cells, but staining may be difficult in cells where apoptosis occurs due to membrane disturbance.

[5] = tested on: HIF-1α; test: Quantitative real-time PCR of lung tissue, HIF-1α; format: in vivo, mouse; details: vs PBS-treated group
Protocol: (§1) To measure the ability of MEL-dKLA to inhibit tumor metastasis, expression levels of CD44 known to interact with extracellular matrix ligand to promote metastasis and invasion and thus to be widely expressed in cancer, CCL22 known as M2-type macrophage marker, HIF-1α known as a marker of angiogenesis, metastasis and invasion, Ym1 as a marker of M2-type macrophage, and MMP-9 involved in the migration and settlement of tumor cells were measured via quantitative real-time PCR.
(§2) More specifically, RNA was extracted from lung tissue using an easy-BLUE RNA extraction kit (iNtRON Biotechnology, Korea). Then, cDNA was synthesized according to the manual for cyclescript reverse transcriptase (Bioneer, Korea). cDNA synthesis conditions were as follows: 15 seconds at 95, 10 seconds at 55, and 10 seconds at 72. Each reaction was conducted 3 times. […] Quantitative real-time PCR was performed using the SensiFAST SYBR no-Rox kit (Bioline, Korea).

[6] = tested on: CCL22; test: Quantitative real-time PCR of lung tissue, CCL22; format: in vivo, mouse; details: vs PBS-treated group
Protocol: as §1, §2

[7] = tested on: M2-type tumor-associated macrophage (CD45+F4/80+CD206+); test: Flow cytometry of tumor tissue, M2-type TAM; format: in vivo, mouse
Protocol: More specifically, the tumor cells were thinly crushed and separated from each other in DMEM to which DNasel (1 U/mL) and collagenase D (1 mg/mL) were added. The tissue was gently agitated for 1 hour at 37° C., and separated using a […] nylon mesh filter. Red blood cells were dissolved in Phrmlyse buffer (BE bioscience). Individual cells passed through a 40-μm nylon mesh filter and then were stained with following antibodies: CD4+ T cell (CD45+CD4+CD8−), CD8+ T cell (CD45+CD4−CD8+), Foxp3+ regulatory T cell (CD4+CD25+Foxp3+), dendritic cell (CD45+CD11b+CD11c+), and M1 (CD45+F4/80+CD86+) or M2 macrophage (CD45+F4/80+CD206+): anti-CD45-FITC, anti-CD4-phycoerythrin (PE), anti-CD8-allophycocyanin (APC), anti-CD4-FITC, anti-CD25-PE, anti-Foxp3-Alexa Fluor647, anti-CD11b-APC, anti-CD11c-APCcy7, anti-Grl-PEcy7, anti-CD86-PEcy7, and anti-CD206-APC antibodies. Annexin-V was previously treated to measure the cell percentage of macrophages.

## CC[C@H](C)[C@H](NC(=O)CN)C(=O)NCC(=O)N[C@@H](C)C(=O)N[C@H](C(=O)N[C@@H](CC(C)C)C(=O)N[C@@H](CCCCN)C(=O)N[C@H](C(=O)N[C@@H](CC(C)C)C(=O)N[C@H](C(=O)N[C@H](C(=O)NCC(=O)N[C@@H](CC(C)C)C(=O)N1CCC[C@H]1C(=O)N[C@@H](C)C(=O)N[C@@H](CC(C)C)C(=O)N[C@H](C(=O)N[C@@H](CO)C(=O)N[C@@H](Cc1c[nH]c2ccccc12)C(=O)N[C@H](C(=O)N[C@@H](CCCCN)C(=O)N[C@@H](CCCNC(=N)N)C(=O)N[C@@H](CCCCN)C(=O)N[C@@H](CCCNC(=N)N)C(=O)N[C@@H](CCC(N)=O)C(=O)N[C@@H](CCC(N)=O)C(N)=O)[C@@H](C)CC)[C@@H](C)CC)[C@@H](C)O)[C@@H](C)O)C(C)C)C(C)C [MEL]
[1]
  metastaticity, luminescence of cancer cells throughout the whole body: metastasis was reduced
[2]
  metastasis to the lung by H&E staining: relatively smaller metastasis occurred
  nodules on the lung surface: no reduction thereof was observed
[2]; lungs
  number of nodules: no significant decrease
[3]
  correlation with mitochondria: did not have any association with mitochondria
  presence in mitochondria by image measurement: could not be identified therein
[4]
  cell death of M2 macrophage (Annexin V / MitoTracker): no significant difference was found
[5]
  expression of HIF-1α: not significantly different
[6]
  expression of CCL22: not significantly different
[7]
  M2-type TAM cells compared to the PBS-treated group: decreased by half
  proportion of M2-type tumor-associated F4/80+ CD206+ TAM in CD45+ leukocytes: about 10%

## d[KLAKLAKKLAKLAK] (D-amino acids) [dKLA, pro-apoptotic peptide KLA, used as control]
[1]
  metastaticity, luminescence of cancer cells throughout the whole body: measured at a high level throughout the body
[2]
  metastasis to the lung by H&E staining: tumor cells were widely spread and metastasis occurred
  nodules on the lung surface: no reduction thereof was observed
[3]
  correlation with mitochondria: did not have any association with mitochondria
  presence in mitochondria by image measurement: a small amount of dKLA was coupled to the cells
[4]
  cell death of M2 macrophage (Annexin V / MitoTracker): no significant difference was found
[5]
  expression of HIF-1α: not significantly different
[6]
  expression of CCL22: not significantly different
[7]
  proportion of M2-type tumor-associated F4/80+ CD206+ TAM in CD45+ leukocytes: about 20%
